Measurements reported in patent EP4620466A1, “TRIMETHOXYSTYRYL DERIVATIVES FOR USE IN THE TREATMENT OF PACLITAXEL-RESISTANT CANCER” (Instituto de Investigación Biomédica de Salamanca De la …, priority 2024, dated 2025).

Tested on: HeLa cells
Test: Cell proliferation assay (XTT), cytostatic activity
Type: cell-based
Settings: Homo sapiens, 72-h treatment, XTT cell proliferation kit
Experimental: […] cells were seeded in 96-well plates and incubated in the presence or the absence of the indicated compounds at concentrations ranging from 10^-5 to 10^-12 M. The cytostatic activity was measured after 72-h treatments using the XTT (sodium 3'-[1-(phenylaminocarbonyl)-3,4-tetrazolium]-bis(4- methoxy-6-nitro)-benzenesulfonic acid hydrate) cell proliferation kit (Roche Molecular Biochemicals; Mannheim, Germany) following the manufacturer's specifications. Each condition was seeded in triplicate, and experiments were repeated three times to calculate IC values by non-linear regression fitting the data.

Row | SMILES | IC50
1 | COc1ccc(C(=O)c2ccc3c(ccn3C)c2)c(OC)c1OC [Compound 4, (1-methyl-1H-indol-5-yl)(2,3,4-trimethoxyphenyl)methanone] | 0.017 µM
2 | C=C(c1cc(OC)c(OC)c(OC)c1)c1ccc2c(c1)c(C=O)cn2C [Compound 11, 1-Methyl-5-[1-(3,4,5-trimethoxyphenyl)vinyl]-1H-indole-3-carbaldehyde] | 0.02 µM
3 | CSc1cc(C(=O)c2ccc3c(c2)c(C=O)cn3C)cc(SC)n1 [Compound 76, 5-(2,6-bis(methylsulfanyl)isonicotinoyl)-1-methyl-1H-indole-3-carbaldehyde] | > 1 µM
4 | COc1cc(/C=C\c2ccc3c(ccn3C)c2)cc(OC)c1OC [Compound 27, (Z)-1-Methyl-5-[2-(3,4,5-trimethoxyphenyl)vinyl)-1H-indole] | 0.25 µM
5 | C=C(c1cc(OC)c(OC)c(OC)c1)c1ccc2c(ccn2C)c1 [Compound 5, 1-methyl-5-(1-(3,4,5-trimethoxyphenyl)vinyl)-1H-indole] | 0.0027 µM
6 | Cn1ccc2cc(C(=O)c3cc(Cl)nc(Cl)c3)ccc21 [Compound 55, (2,6-dichloropyridin-4-yl)(1-methyl-1H-indol-5-yl)methanone] | 0.8 µM
7 | CSc1cc(C(=O)c2ccc3c(c2)c(C=O)cn3C)cc(N(C)C)n1 [Compound 92, 5-(2-(dimethylamino)-6-(methylthio)isonicotinoyl)-1-methyl-1H-indole-3-carbaldehyde] | > 1 µM
8 | CSc1cc(C(=NO)c2ccc3c(ccn3C)c2)cc(Cl)n1 (mixture of isomers) [Compound 66, (E/Z)-(2-chloro-6-(methylsulfanyl)pyridin-4-yl) (1-methyl-1H-indol-5-yl)methanone oxime] | 0.3 µM
9 | C=C(c1cc(Cl)nc(SC)c1)c1ccc2c(ccn2C)c1 [Compound 65, 5-(1-(2-Chloro-6-(methylsulfanyl)pyridin-4-yl)vinyl)-1-methyl-1H-indole] | 0.1 µM
10 | COc1cc(C(=NO)c2ccc3c(ccn3C)c2)cc(SC)n1 [Compound 83, (2-methoxy-6-(methylsulfanyl)pyridin-4-yl)(1-methyl-1H-indol-5-yl)methanone oxime] | 0.2 µM
11 | C=C(c1cc(SC)nc(SC)c1)c1ccc2c(c1)c(C=O)cn2C [Compound 77, 5-(1-(2,6-bis(methylsulfanyl)pyridin-4-yl)vinyl)-1-methyl-1H-indole-3-carbaldehyde] | 0.1 µM
12 | COc1ccc(/C(=N\O)c2ccc3c(ccn3C)c2)c(OC)c1OC [Compound 8, Z-(1-methyl-1H-indol-5-yl)(2,3,4-trimethoxyphenyl)methanone oxime] | 0.076 µM
13 | C=C(c1cc(Cl)nc(Cl)c1)c1ccc2c(ccn2C)c1 [Compound 56, 5-(1-(2,6-dichloropyridin-4-yl)vinyl)-1-methyl-1H-indole] | 0.04 µM
14 | CSc1cc(C(=NO)c2ccc3c(ccn3C)c2)cc(N(C)C)n1 [Compound 91, (2-(Dimethylamino)-6-(methylthio)pyridin-4-yl)(1-methyl-1H-indol-5-yl)methanone oxime] | 0.6 µM
15 | C=C(c1cc(SC)nc(N(C)C)c1)c1ccc2c(c1)c(C(N)=O)cn2C [Compound 97, 5-(1-(2-(dimethylamino)-6-(methylthio)pyridin-4-yl)vinyl)-1-methyl-1H-indole-3-carboxamide] | 0.6 µM
16 | Cn1cc(C=O)c2cc(C(=O)c3cc(Cl)nc(Cl)c3)ccc21 [Compound 57, 5-(2,6-dichloroisonicotinoyl)-1-methyl-1H-indole-3-carbaldehyde] | > 1 µM
17 | C=C(c1ccc2c(ccn2C)c1)c1ccc(OC)c(OC)c1OC [Compound 6, 1-methyl-5-(1-(2,3,4-trimethoxyphenyl)vinyl)-1H-indole] | 0.032 µM
18 | C=C(c1cc(OC)c(OC)c(OC)c1)c1ccc2c(c1)c(C(=O)O)cn2C [Compound 16, 1-Methyl-5-(1-(3,4,5-trimethoxyphenyl)vinyl)-1H-indole-3-carboxylic acid] | > 10 µM
